From PMC8011931, “Identification, Structure–Activity Relationship, and Biological Characterization of 2,3,4,5-Tetrahydro-1H-pyrido[4,3-b]indoles as a Novel Class of CFTR Potentiators” (Journal of Medicinal Chemistry, 2020) come the findings set out here.

The test concerns the target F508del-CFTR (Homo sapiens, UniProt P13569, DEL508-508). The test is described as follows: HS-YFP-based assay for CFTR activity on F508del-CFTR FRT cells rescued at 32 °C for 24 h. Further details: expressed in transfected cells; key to Emax: fold increase in F508del-CFTR rescue relative to hit 3 (normalized). Format: cell-based. The note with it: for EC50: F508del-CFTR FRT cells rescued at 32 °C for 24 h, plus forskolin; for EC50 / Emax (FRT F508del-CFTR): mean ± SD (n = 3–6), n.a.: not active (up to 20 μM); for Emax: supplementary csv, same data as Tables 1–3; for Emax (FRT F508del-CFTR): normalized for the activity of analogue 3. Here is the method:
The chemical library was screened in duplicate on a Fischer rat thyroid (FRT) cell line, stably coexpressing F508del-CFTR and the halide-sensitive yellow fluorescent protein, HS-YFP.[23],[34],[35] To overcome the F508del trafficking defect, cells were initially incubated for 24 h at 32 °C and then acutely treated (15–30 min) with a single compound (5 μM) in combination with forskolin (10 μM). After stimulation, the F508del-CFTR activity in the plasma membrane was calculated by measuring the rate of fluorescence quenching arising from iodide influx.[34] This activity was compared to that of wells containing forskolin alone (negative control) or forskolin plus VX-770 (1 μM, as a positive control) (Figure 2A). Analysis of screening performance with the Z′ method gave a score of 0.6, which can be considered optimal for this type of assay. The activity scores for each compound were then plotted as an ordered distribution (Figure 2B). All compounds whose average activity calculated from the two rounds of screening was greater than 185% with respect to the negative control (i.e., forskolin alone) were considered as primary hits.
The primary hits were confirmed by testing them at different concentrations, in order to extrapolate the dose–response relationship. First, we focused on the F508del mutant. The compounds were tested in the low micromolar range, in the presence of forskolin (10 μM), on F508del-CFTR FRT cells following rescue of the trafficking defect by low-temperature incubation, as done for the primary screening. The most interesting hits were subsequently tested for their ability to overcome the more severe gating defect of pure class III mutant using FRT cells stably expressing G551D-CFTR (Figure 3B).
The role of the heteroaryl group (A) acylating the position 2 of the tetrahydro-γ-carboline was initially explored by modifying the substituent on the pyrazolyl residue and replacing the pyrazole with other rings, while keeping the 8-methoxy carboline moiety unmodified. The activity of each compound is described in terms of normalized maximal efficacy (Emax), the maximum fold increase in the rescue of F508del-CFTR activity with respect to hit 3, and potency (EC50), the concentration producing half-maximal efficacy.
FRT cells stably expressing mutant F508del-CFTR or G551D-CFTR and the halide-sensitive yellow fluorescent protein (HS-YFP) YFP-H148Q/I152L and CFBE41o-cells stably expressing F508del-CFTR and HS-YFP were generated as previously described.[21],[57] FRT cells were cultured using the Coon’s modification of Ham’s F12 medium, while CFBE41o-cells were cultured in the modified Eagle’s medium. Media were supplemented with 10% fetal calf serum, 2 mM L-glutamine, 100 U/mL of penicillin, and […] of streptomycin. For functional assays of CFTR activity based on the HS-YFP assays, CFBE41o- or FRT cells were plated (50,000 cells/well) on clear-bottom 96-well black microplates (Corning Life Sciences, Acton, MA). The following day, cells were assayed. In the case of FRT cells expressing F508del-CFTR, plates were kept at 32 °C (or treated with correctors at 37 °C where indicated) for an additional 24 h to rescue the mutant trafficking defect, before assays.
Prior assay, cells were washed with phosphate-buffered saline (PBS) containing (in mM) 137 NaCl, 2.7 KCl, 8.1 Na2HPO4, 1.5 KH2PO4, 1 CaCl2, and 0.5 MgCl2. Cells were then incubated for 25 min with 60 μL of PBS plus forskolin (20 μM) and test compounds (at the desired concentration) to stimulate mutant CFTR. Cells were then transferred to microplate readers (FluoStar Optima; BMG Labtech, Offenburg, Germany) for CFTR activity determination. The plate readers were equipped with high-quality excitation (HQ500/20X: 500 ± 10 nm) and emission (HQ535/30M: 535 ± 15 nm) filters for YFP (Chroma Technology). […]

Chain of F508del-CFTR (P13569 with tags, fused parts or gaps DEL508-508): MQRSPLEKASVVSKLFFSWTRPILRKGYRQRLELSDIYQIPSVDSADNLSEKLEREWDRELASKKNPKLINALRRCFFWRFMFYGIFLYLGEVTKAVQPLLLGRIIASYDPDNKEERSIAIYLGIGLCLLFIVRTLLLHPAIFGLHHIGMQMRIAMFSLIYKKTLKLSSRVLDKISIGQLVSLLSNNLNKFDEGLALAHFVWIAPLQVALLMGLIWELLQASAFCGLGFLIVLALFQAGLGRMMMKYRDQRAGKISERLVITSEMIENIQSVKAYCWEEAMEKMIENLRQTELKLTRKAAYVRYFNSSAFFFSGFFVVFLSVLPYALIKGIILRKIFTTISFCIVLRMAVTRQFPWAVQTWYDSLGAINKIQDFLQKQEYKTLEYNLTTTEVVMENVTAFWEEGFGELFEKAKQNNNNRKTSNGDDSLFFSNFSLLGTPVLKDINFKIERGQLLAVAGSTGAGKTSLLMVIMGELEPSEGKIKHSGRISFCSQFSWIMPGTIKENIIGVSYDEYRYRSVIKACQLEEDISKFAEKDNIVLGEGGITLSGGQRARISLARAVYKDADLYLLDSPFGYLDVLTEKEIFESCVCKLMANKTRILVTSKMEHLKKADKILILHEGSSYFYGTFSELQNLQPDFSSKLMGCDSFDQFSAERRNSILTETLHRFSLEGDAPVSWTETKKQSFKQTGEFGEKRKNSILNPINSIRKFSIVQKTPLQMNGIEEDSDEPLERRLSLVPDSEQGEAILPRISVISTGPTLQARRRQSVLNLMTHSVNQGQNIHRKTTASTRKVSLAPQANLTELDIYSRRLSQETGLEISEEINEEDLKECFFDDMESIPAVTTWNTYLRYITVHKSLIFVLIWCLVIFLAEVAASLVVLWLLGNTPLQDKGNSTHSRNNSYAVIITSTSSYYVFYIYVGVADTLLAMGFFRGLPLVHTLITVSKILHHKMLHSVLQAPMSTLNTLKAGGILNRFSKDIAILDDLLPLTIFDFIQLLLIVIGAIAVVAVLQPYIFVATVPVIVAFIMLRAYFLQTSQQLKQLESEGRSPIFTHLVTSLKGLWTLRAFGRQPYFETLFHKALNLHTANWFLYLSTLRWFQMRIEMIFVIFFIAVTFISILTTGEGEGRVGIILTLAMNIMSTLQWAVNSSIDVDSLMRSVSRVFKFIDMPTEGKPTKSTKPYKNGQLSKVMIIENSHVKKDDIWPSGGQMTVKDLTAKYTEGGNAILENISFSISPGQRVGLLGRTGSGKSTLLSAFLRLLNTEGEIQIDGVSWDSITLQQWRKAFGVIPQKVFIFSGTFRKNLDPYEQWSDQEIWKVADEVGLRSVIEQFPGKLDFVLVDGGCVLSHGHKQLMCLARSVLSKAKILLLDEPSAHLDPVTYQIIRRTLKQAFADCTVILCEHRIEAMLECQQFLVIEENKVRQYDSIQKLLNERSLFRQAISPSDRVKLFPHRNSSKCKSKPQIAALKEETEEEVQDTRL

As for `Cc1ccc(F)c2[nH]c3c(c12)C(C)N(C(=O)c1cc(C(F)(F)F)[nH]n1)CC3` (racemic) [Compound 32, (±)-(6-Fluoro-1,9-dimethyl-1,3,4,5-tetrahydro-2H-pyrido[4,3-b]indol-2-yl)-(5-(trifluoromethyl)-1H-pyrazol-3-yl)methanone], the EC50 came to 0.03 ± 0.02 µM and the Emax stood at 1.0 ± 0.3.

On to `Cc1ccc(F)c2[nH]c3c(c12)CN(C(=O)c1cc(C(F)(F)F)[nH]n1)C(C)C3` (racemic) [Compound 33, (±)-(6-Fluoro-3,9-dimethyl-1,3,4,5-tetrahydro-2H-pyrido[4,3-b]indol-2-yl)-(5-(trifluoromethyl)-1H-pyrazol-3-yl)methanone], for which the EC50 turned out to be 0.022 ± 0.011 µM and the Emax came out at 0.95 ± 0.27.

With `Cc1ccc(F)c2[nH]c3c(c12)C1CCC(C3)N1C(=O)c1cc(C(F)(F)F)[nH]n1` (racemic) [Compound 35, (±)-(4-Fluoro-1-methyl-5,6,7,8,9,10-hexahydro-7,10-epiminocyclohepta[b]indol-11-yl)-(5-(trifluoromethyl)-1H-pyrazol-3-yl)methanone], the EC50 stood at 1.3 ± 0.3 µM and the Emax came to 0.82 ± 0.07.

For the molecule `Cc1ccc(F)c2[nH]c3c(c12)[C@H]1CC[C@@H](C3)N1C(=O)c1cc(C(F)(F)F)[nH]n1` (single isomer, unassigned) [Compound 36, (R)- or (S)-(4-Fluoro-1-methyl-5,6,7,8,9,10-hexahydro-7,10-epiminocyclohepta[b]indol-11-yl)(5-(trifluoromethyl)-1H-pyrazol-3-yl)methanone], the “activity on F508del-CFTR FRT cells (in words)” value is “completely inactive”.

As for `Cc1ccc(F)c2[nH]c3c(c12)C1CCC(C3)N1C(=O)c1cc(C(F)(F)F)[nH]n1` (single isomer, unassigned) [Compound 37, (S)- or (R)-(4-Fluoro-1-methyl-5,6,7,8,9,10-hexahydro-7,10-epiminocyclohepta[b]indol-11-yl)(5-(trifluoromethyl)-1H-pyrazol-3-yl)methanone], the “activity on F508del-CFTR FRT cells (in words)” value is reported as “retained some activity”, the EC50 was 0.54 ± 0.04 µM and the Emax came out at 0.95 ± 0.01.

Consider `Cc1ccc(F)c2[nH]c3c(c12)C(C)N(C(=O)c1cc(C(F)(F)F)[nH]n1)CC3` (single isomer, unassigned) [Compound 41, (R)- or (S)-(6-Fluoro-1,9-dimethyl-1,3,4,5-tetrahydro-2H-pyrido[4,3-b]indol-2-yl)-(5-(trifluoromethyl)-1H-pyrazol-3-yl)methanone], for which the EC50 amounted to 0.08 ± 0.02 µM and the Emax came out at 1.0 ± 0.22.

In the case of `Cc1ccc(F)c2[nH]c3c(c12)C(C)N(C(=O)c1cc(C(F)(F)F)[nH]n1)CC3` (single isomer, unassigned) [Compound 42, (S)- or (R)-(6-Fluoro-1,9-dimethyl-1,3,4,5-tetrahydro-2H-pyrido[4,3-b]indol-2-yl)-(5-(trifluoromethyl)-1H-pyrazol-3-yl)methanone], the EC50 is 0.05 ± 0.01 µM and the Emax was determined as 0.9 ± 0.3.

Turning to `O=C(c1cnn(-c2ccccc2)c1)N1CCc2[nH]c3ccccc3c2C1` [Compound 2, (1-Phenyl-1H-pyrazol-4-yl)-(1,3,4,5-tetrahydro-2H-pyrido[4,3-b]indol-2-yl)methanone], the EC50 came to 4.1 ± 1.3 µM and the Emax was determined as 0.79 ± 0.13.

In the case of `COc1ccc2[nH]c3c(c2c1)CN(C(=O)c1cc[nH]n1)CC3` [Compound 4, (8-Methoxy-1,3,4,5-tetrahydropyrido[4,3-b]indol-2-yl)-(1H-pyrazol-3-yl)methanone], the EC50 came out at 10.6 ± 1.3 µM, the “Emax (FRT F508del-CFTR)” value is listed as 0.17 ± 0.03 and the Emax turned out to be 0.17 ± 0.03.

As for `COc1ccc2[nH]c3c(c2c1)CN(C(=O)c1cc(C)[nH]n1)CC3` [Compound 5, (8-Methoxy-1,3,4,5-tetrahydro-2H-pyrido[4,3-b]indol-2-yl)-(5-methyl-1H-pyrazol-3-yl)methanone], the EC50 was 60 ± 4 µM, the “Emax (FRT F508del-CFTR)” value is on record as 0.59 ± 0.11 and the Emax amounted to 0.59 ± 0.11.

On to `COc1ccc2[nH]c3c(c2c1)CN(C(=O)c1cc(C(C)C)[nH]n1)CC3` [Compound 6, (8-Methoxy-1,3,4,5-tetrahydro-2H-pyrido-(5-isopropyl-1H-pyrazol-3-yl)-[4,3-b]indol-2-yl)methanone], for which the EC50 is 5.7 ± 0.7 µM, the “Emax (FRT F508del-CFTR)” value was 0.95 ± 0.08 and the Emax is reported as 0.95 ± 0.08.

Take `COc1ccc2[nH]c3c(c2c1)CN(C(=O)c1cc(-c2ccccc2)[nH]n1)CC3` [Compound 7, (8-Methoxy-1,3,4,5-tetrahydro-2H-pyrido[4,3-b]indol-2-yl)-(5-phenyl-1H-pyrazol-3-yl)methanone]: the EC50 amounted to 0.82 ± 0.17 µM, the “Emax (FRT F508del-CFTR)” value was determined as 0.84 ± 0.23 and the Emax came out at 0.84 ± 0.23.

Take `COc1ccc2[nH]c3c(c2c1)CN(C(=O)c1c[nH]c(C(F)(F)F)n1)CC3` [Compound 8, (8-Methoxy-1,3,4,5-tetrahydro-2H-pyrido[4,3-b]indol-2-yl)-(2-(trifluoromethyl)-1H-imidazol-4-yl)methanone]: the EC50 was determined as 2.8 ± 0.8 µM and the Emax worked out at 0.59 ± 0.14.

With `COc1ccc2[nH]c3c(c2c1)CN(C(=O)c1ccc(Br)o1)CC3` [Compound 9, (8-Methoxy-1,3,4,5-tetrahydro-2H-pyrido[4,3-b]indol-2-yl)-(5-bromofuran-2-yl)methanone], the EC50 was 3.7 ± 1.1 µM and the Emax came out at 0.94 ± 0.11.

Regarding `COc1ccc2[nH]c3c(c2c1)CN(C(=O)c1cc2ccc(N(C)C)cc2[nH]1)CC3` [Compound 10, (8-Methoxy-1,3,4,5-tetrahydro-2H-pyrido[4,3-b]indol-2-yl)-(6-(dimethylamino)-1H-indol-2-yl)methanone], the EC50 was determined as 0.15 ± 0.02 µM, the “Emax (FRT F508del-CFTR)” value came out at 0.91 ± 0.12 and the Emax is listed as 0.91 ± 0.12.

As for `COc1ccc2[nH]c3c(c2c1)CN(C(=O)c1cc(C(F)(F)F)n(C)n1)CC3` [Compound 11, (8-Methoxy-1,3,4,5-tetrahydro-2H-pyrido[4,3-b]indol-2-yl)-(1-methyl-5-(trifluoromethyl)-1H-pyrazol-3-yl)methanone], the EC50 was found to be 7.1 ± 1.6 µM, the “Emax (FRT F508del-CFTR)” value is listed as 1.20 ± 0.08 and the Emax amounted to 1.20 ± 0.08.

On to `COc1ccc2c(c1)c1c(n2C)CCN(C(=O)c2cc(C(F)(F)F)[nH]n2)C1` [Compound 12, (8-Methoxy-5-methyl-1,3,4,5-tetrahydro-2H-pyrido[4,3-b]indol-2-yl)-(5-(trifluoromethyl)-1H-pyrazol-3-yl)methanone], for which the EC50 is 2.1 ± 0.7 µM, the “Emax (FRT F508del-CFTR)” value stood at 0.85 ± 0.06 and the Emax amounted to 0.85 ± 0.06.

Consider `O=C(c1cc(C(F)(F)F)[nH]n1)N1CCc2[nH]c3ccccc3c2C1` [Compound 13, (1,3,4,5-Tetrahydro-2H-pyrido[4,3-b]indol-2-yl)-(5-(trifluoromethyl)-1H-pyrazol-3-yl)methanone], for which the EC50 came out at 0.23 ± 0.05 µM and the Emax came to 1.05 ± 0.17.

In the case of `Cc1ccc2[nH]c3c(c2c1)CN(C(=O)c1cc(C(F)(F)F)[nH]n1)CC3` [Compound 14, (8-Methyl-1,3,4,5-tetrahydro-2H-pyrido[4,3-b]indol-2-yl)-(5-(trifluoromethyl)-1H-pyrazol-3-yl)methanone], the EC50 is 0.27 ± 0.09 µM and the Emax is given as 0.95 ± 0.11.

Usually EC50 stands for the concentration at which the effect is half-maximal.
